Laboratory results reported in article PMC12613848, “First in human phase 1 study of DT2216, a selective BCL-xL degrader, in patients with relapsed/refractory solid malignancies” (Journal of Hematology & Oncology, 2025).

Tested on: advanced solid tumors
Assay: Efficacy in patients (RECIST v1.1, Kaplan-Meier survival)
Format: in vivo, human
From the text: The primary objective of the escalation phase was to determine the recommended phase 2 dose (RP2D) for DT2216. The secondary objectives were to characterize the adverse event (AE) profile, determine the pharmacokinetic profile (PK)/pharmacodynamic profile (PD) and describe preliminary evidence of efficacy using objective response rate (ORR), disease control rate (DCR), and progression-free survival (PFS) based on Response Evaluation Criteria in Solid Tumors (RECIST) v1.1. Exploratory objectives were to characterize the baseline and on-treatment expression of BCL-XL and VHL on blood lymphocytes, as well as other circulating biomarkers. Exploratory objectives included characterizing the baseline and on-treatment changes in platelet count and correlating them with DT2216 drug levels.
Patients were allowed a maximum of two intra-patient dose escalations. Patients received DT2216 by intravenous infusion on days 1 and 4 weekly for at least 4 weeks, with each cycle consisting of a 28-day cycle for a maximum duration of 1 year until disease progression, unacceptable toxicity, or other withdrawal criteria, as listed in the protocol. The extent of disease was evaluated using imaging studies and disease-appropriate tumor markers every 8 weeks from day 1 of the first cycle. RP2D was established based on MTD as well as other relevant data, including clinical signals of activity, PK, and PD data.
Premedication prior to each infusion was at the discretion of the investigator or according to institutional guidelines. Patient assessment and follow-up procedures can be found in the schedule of assessments in this study. The clinical response was evaluated using RECIST v1.1 per protocol. Blood samples were collected for PK analysis before and after post-infusion at defined intervals, along with platelet counts. Exploratory biomarkers include (but are not limited to) the assessment of BCL-XL and VHL levels in peripheral white blood cells (WBC).
Descriptive statistics were used to display dose escalation data and results. Continuous variables, including baseline characteristics, will be summarized by reporting the number of observations, mean, standard deviation, median, minimum, and maximum values. Categorical/discrete variables will be summarized using frequency tables that show the number and percentage of subjects within a category. Time-to-event analysis was performed using the Kaplan–Meier method. The overall response rate (ORR) and its 2-sided 95% confidence interval (CI) were calculated using the Clopper-Pearson method.

[1] = Cohort 1 (0.04 mg/kg), 1 treated
[2] = Cohort 2 (0.08 mg/kg), 1 treated
[3] = Cohort 3 (0.12 mg/kg), 1 treated
[4] = Cohort 4 (0.24 mg/kg), 7 treated
[5] = Cohort 5 (0.32 mg/kg), 6 treated
[6] = Cohort 6 (0.40 mg/kg), 4 treated

Cc1ncsc1-c1ccc([C@H](C)NC(=O)[C@@H]2C[C@@H](O)CN2C(=O)[C@@H](NC(=O)CCCCCC(=O)N2CCN(CC[C@H](CSc3ccccc3)Nc3ccc(S(=O)(=O)NC(=O)c4ccc(N5CCN(CC6=C(c7ccc(Cl)cc7)CCC(C)(C)C6)CC5)cc4)cc3S(=O)(=O)C(F)(F)F)CC2)C(C)(C)C)cc1 [DT2216]
patients who discontinued treatment because of objective disease progression (15/20 patients): 75%
stable disease (best response per RECIST v1.1), share of patients (20 patients, 0.04 to 0.4 mg/kg IV BIW): 20%
Treatment discontinuation: Clinical progression of neoplastic disease (subjects) [1]: 1
Treatment discontinuation: Objective progression of neoplastic disease (subjects) [1]: 0
Treatment discontinuation: Clinical progression of neoplastic disease (subjects) [2]: 0
Treatment discontinuation: Objective progression of neoplastic disease (subjects) [2]: 1
Treatment discontinuation: Clinical progression of neoplastic disease (subjects) [3]: 0
Treatment discontinuation: Objective progression of neoplastic disease (subjects) [3]: 1
Treatment discontinuation: Clinical progression of neoplastic disease (subjects) [4]: 2
Treatment discontinuation: Objective progression of neoplastic disease (subjects) [4]: 4
Treatment discontinuation: Clinical progression of neoplastic disease (subjects) [5]: 1
Treatment discontinuation: Objective progression of neoplastic disease (subjects) [5]: 5
Treatment discontinuation: Clinical progression of neoplastic disease (subjects) [6]: 0
Treatment discontinuation: Objective progression of neoplastic disease (subjects) [6]: 4
median overall survival (Kaplan–Meier, 95% CI 4.0 – NE): 7.9 months
Treatment discontinuation: Clinical progression of neoplastic disease (subjects) (Total, 20 treated): 4
Treatment discontinuation: Objective progression of neoplastic disease (subjects) (Total, 20 treated): 15
median duration of response (stable disease) (human, in vivo): 107 days
target liver lesions versus baseline (one person, non-small cell lung adenocarcinoma, 0.24 mg/kg, after C4): decrease in size of target liver lesions
single-agent activity (patients with different advanced solid tumors): did not demonstrate single-agent activity
